Experimental data: patent US6303612A, “Derivatives of hydroxyphenylsulfanylbenzoic and hydroxphenylsulfanylarylacetic acids” (Leciva, A.S., priority 1998, dated 2001)
≈ marks a conversion by molar mass, not a printed value. Counter-ions that a name gives are not always drawn. Like-named read-outs stand apart in the source and are kept apart here.

How the values were obtained:
[1] = test system: peroxidation of lipids from the hepatic cells membranes; assay: Antioxidant effect in vitro; type: biochemical; conditions: at 100 μg
From the text: Antioxidant Effect in vitro
The end-product, malonic dialdehyde, was transformed to coloured complex with thiobarbituric acid and determined spectrophotometrically. The antioxidant effect was expressed in % of peroxidation inhibition in the presence of the compound tested in comparison to a control sample.

Wistar-Han rats = assay: Inhibition of carrageenan edema; type: in vivo; conditions: for inhibition in vivo at 100 mg/kg: Rattus norvegicus, read-out: CE: inhibition of carrageenan-induced edema, % of inh.
rats = assay: Inhibition of carrageenan-induced pleuritis in rats; type: in vivo; conditions: for inhibition in vivo at 100 mg/kg: Rattus norvegicus, po, 4 h
Experimental: Inhibition of Carrageenan-induced Pleuritis in Rats
(Hidaka T. J.: Pharm. Pharmacol. 38, 242 (1986) 1 ml of 0.5% carrageenan solution in saline was administered intrapleurally to experimental animals under mild ether anesthesia. Test drugs were administered in single oral dose 1 h before carrageenan injection, 4 h following the carrageenan application the rats were killed and exudate was withdrawn from opened pleural cavity. The volume of exudate, its cellularity and total cell number were determined.

[2] = test system: LTB4 production in rat polymorphonuclear cells; assay: Ex vivo inhibition of LTB4 production (LTB4 biosynthesis); type: cell-based; conditions: for Inh. of LTB4 biosynth., %: at 30 μg (%/μg); for IC50: Rattus norvegicus, read-out: Inh. of LTB4 biosynth., IC50
Experimental: Ex vivo Inhibition of LTB4 Production The production of LTB4 was determined in rat polymorphonuclear cells from pleural exudate elicited by heat-activated rat serum (Palmer R. M. J., Salmon J. A.: Immunology 50, 65 (1983)). The cells were stimulated with the Ca ionophore A 23187 (Sigma) and incubated with various concentrations of the drugs tested. The sample containing only buffer was used for the determination of unaffected biosynthesis; the complete inhibition was measured in a sample with 100 μg of NDGA in 1 ml. LTB4 was determined in supernatant using a commercial RIA kit (Amersham).

LTD4 receptor = biological target: T1, LTD4 receptor (Cavia porcellus, UniProt Q2NNR5); assay: LTD4 receptor binding study; conditions: 3H-LTD4, guinea-pig lung membranes; for IC50: read-out: Inh. of LTD4 rec. binding, IC50; for inhibition at 100 µM / inhibition at 20 µM: read-out: Inh. of LTD4 rec. binding, %
T1 construct: The membrane fraction was prepared from male guinea-pig lungs; from tissue; host or cells: male guinea-pig lung membranes
T1 sequence (Q2NNR5 1-340): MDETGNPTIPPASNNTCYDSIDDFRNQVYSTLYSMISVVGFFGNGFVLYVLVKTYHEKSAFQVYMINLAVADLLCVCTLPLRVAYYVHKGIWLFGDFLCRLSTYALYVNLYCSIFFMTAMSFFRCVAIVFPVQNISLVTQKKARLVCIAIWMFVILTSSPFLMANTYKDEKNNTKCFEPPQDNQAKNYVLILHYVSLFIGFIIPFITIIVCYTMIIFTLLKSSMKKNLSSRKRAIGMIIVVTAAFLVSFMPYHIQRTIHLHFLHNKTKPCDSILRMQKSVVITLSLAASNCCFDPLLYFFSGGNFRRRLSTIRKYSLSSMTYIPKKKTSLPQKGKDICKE
Experimental: LTD4 Receptor Binding Study
This study was performed according to the method of Burns and coworkers (Burns R. F. et al.: Life Sci. 33, 645 (1983)). The membrane fraction was prepared from male guinea-pig lungs, and 4 mg of this fraction were incubated with 0.4 nM ^3 H-LTD4 for 60 min at 25° C. in 100 μl of the incubated mixture. The nonspecific binding was determined in the presence of 0.1 μM LTD4. The filtration of the membranes, washing, and radioactivity measurement were as above.

male mice = assay: Inhibition of arachidonic acid-induced ear inflammation in mice; type: in vivo; conditions: for inhibition in vivo at 200 mg/kg: Mus musculus, po, 1 h
Experimental: Inhibition of Arachidonic Acid-induced Ear Inflammation in Mice (Opas E. E. et al.: J. Invest. Dermatol. 84, 253 (1985) Ear inflammation was induced in male mice by 20 μl of arachidonic acid dissolved in acetone (concentration 100 mg/ml). The mice were sacrificed 1 h after application of arachidonic acid and the ears were cut off by standard means. The other, vehicle-treated ear of the same animal served as a control. The degree of ear hyperemia and the weight of ear lobes were evaluated. Test compounds were administered orally 1 h before the induction of inflammation.

LTB4 receptor = LTB4 receptor (Cavia porcellus, UniProt H0VYV8); assay: LTB4 receptor binding study; conditions: 3H-LTB4, guinea-pig spleen membranes; for IC50: read-out: Inh. of LTB4 rec. binding, IC50; for inhibition at 20 µM: read-out: Inh. of LTB4 rec. binding, %
Experimental: LTB4 Receptor Binding Study
A slightly modified method of Cheng and coworkers (Cheng J. B. et al.: J. Pharm. Expl. Ther. 236, 126 (1986)) was used. The membrane fraction was prepared from male guinea-pig spleen; 2 mg of membranes were incubated with 0.3 nM ^3 H-LTB4 at 25° C. for 30 min in 100 μl of the incubated mixture. The nonspecific binding was determined in the presence of 0.1 μM LTB4. The membranes were filtered though Whatman GF/C paper and washed triply with buffer. The radioactivity was measured by liquid scintillation spectrometry, and the specific binding of ^3 H-LTB4 to the receptor was determined.

[3] = values with mark n: p > 0.05, read-out: Ear edema, D: edema of ear lobe, % of inh.
[4] = values with mark n: p > 0.05, read-out: Ear edema, E: hyperemia of ear lobe, % of inh.
[5] = dose 100 mg/kg, oral, values with mark n: p > 0.05, read-out: Experimental pleuritis, A: volume of exudate in pleural cavity, % of inh.
[6] = dose 100 mg/kg, oral, values with mark n: p > 0.05, read-out: Experimental pleuritis, B: number of cells, % of inh.
[7] = dose 100 mg/kg, oral, values with mark n: p > 0.05, read-out: Experimental pleuritis, C: cellularity in a volume unit, % of inh.
[8] = dose 100 mg/kg, oral, values with mark n: p > 0.05, 100 mg/kg
[9] = dose 200 mg/kg, oral, values with mark n: p > 0.05, 200 mg/kg

Sequence of LTB4 receptor (H0VYV8 1-348): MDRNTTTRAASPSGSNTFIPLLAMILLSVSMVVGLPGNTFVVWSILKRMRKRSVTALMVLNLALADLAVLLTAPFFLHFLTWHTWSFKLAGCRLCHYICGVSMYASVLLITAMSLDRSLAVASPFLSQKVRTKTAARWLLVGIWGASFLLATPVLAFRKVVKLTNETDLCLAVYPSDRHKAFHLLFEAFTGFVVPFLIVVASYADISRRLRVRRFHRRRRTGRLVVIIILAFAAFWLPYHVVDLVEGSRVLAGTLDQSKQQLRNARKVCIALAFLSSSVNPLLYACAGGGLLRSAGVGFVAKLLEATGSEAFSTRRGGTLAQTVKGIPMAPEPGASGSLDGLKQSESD

Structure (SMILES) | IC50 (LTD4 receptor) | IC50 (LTB4 receptor) | inhibition at 20 µM (LTB4 receptor; at 20 μM) | IC50 [2] | inhibition at 20 µM (LTD4 receptor) | Antiox. effect, % of peroxidation inhibition [1] | Inh. of LTB4 biosynth., % [2] | inhibition at 100 µM (LTD4 receptor) | inhibition in vivo at 200 mg/kg (male mice; [3]) | inhibition in vivo at 200 mg/kg (male mice; [4]) | inhibition in vivo at 100 mg/kg (Wistar-Han rats; dose 100 mg/kg) | inhibition in vivo at 100 mg/kg (rats; [5]) | inhibition in vivo at 100 mg/kg (rats; [6]) | inhibition in vivo at 100 mg/kg (rats; [7]) | further results
CCCc1c(OCCCOc2ccc(Sc3ccccc3C(=O)O)cc2)ccc(C(C)=O)c1O [Compound 4] | 10.4 µM | 13 µM | 47% | – | – | 34% | 100% | 100% | 6% | 2% | – | – | – | – | inhibition in vivo at 100 mg/kg (Wistar-Han rats): 35%; inhibition in vivo at 100 mg/kg (rats; read-out: Experimental pleuritis, A: volume of exudate in pleural cavity, % of inh.): 10%; inhibition in vivo at 100 mg/kg (rats; read-out: Experimental pleuritis, B: number of cells, % of inh.): 35%; inhibition in vivo at 100 mg/kg (rats; read-out: Experimental pleuritis, C: cellularity in a volume unit, % of inh.): 30%
O=C(O)c1ccc(Sc2cccc(OCc3ccc4ccccc4n3)c2)cc1 [Compound 18] | 1.6 µM | 92.9 µM | 24% | 0.02 µg/mL (≈ 0.0516 µM) | – | 16% | 100% | 100% | 13% | 8% | 10% | 28% | 29% | 1% | –
CCCc1c(OCCCCOc2ccc(Sc3ccccc3CC(=O)O)cc2)ccc(C(C)=O)c1O [Compound 26, 2-(4-(4-(4-Acetyl-3-hydroxy-2-propylphenoxy)butoxy)phenylsulfanyl)phenylacetic Acid] | 34.7 µM | 18 µM | 29% | – | – | 0% | 97% | 63% | 17% | 0% | 34% | 20% | 8% | 23% | –
CCCc1c(OCCCOc2cccc(Sc3ccccc3C(=O)O)c2)ccc(C(C)=O)c1O [Compound 6, 2-(3-(3-(4-Acetyl-3-hydroxy-2-propylphenoxy)propoxy)phenylsulfanyl)benzoic Acid] | 4.1 µM | 20.6 µM | 50% | – | – | 19% | 73% | 100% | 9% | 8% | 22% | 26% | 29% | 6% | –
CCCc1c(OCCCCOc2cccc(Sc3ccc(C(=O)O)cc3[N+](=O)[O-])c2)ccc(C(C)=O)c1O [Compound 9, 4-(3-(4-(4-Acetyl-3-hydroxy-2-propylphenoxy)butoxy)phenylsulfanyl)-3-nitrobenzoic Acid] | 48.4 µM | 15 µM | 65% | – | – | 40% | 100% | 53% | 14% | 2% | 19% | 34% | 54% | 30% | –

Second part, led by results:

IC50 (LTD4 receptor) | IC50 (LTB4 receptor) | inhibition at 20 µM (LTB4 receptor; at 20 μM) | IC50 [2] | inhibition at 20 µM (LTD4 receptor) | Structure (SMILES) | Antiox. effect, % of peroxidation inhibition [1] | Inh. of LTB4 biosynth., % [2] | inhibition at 100 µM (LTD4 receptor) | inhibition in vivo at 200 mg/kg (male mice; [3]) | inhibition in vivo at 200 mg/kg (male mice; [4]) | inhibition in vivo at 100 mg/kg (Wistar-Han rats; dose 100 mg/kg) | inhibition in vivo at 100 mg/kg (rats; [5]) | inhibition in vivo at 100 mg/kg (rats; [6]) | inhibition in vivo at 100 mg/kg (rats; [7]) | further results
– | – | 12% | 9.2 µg/mL (≈ 18 µM) | – | O=C(O)Cc1ccccc1Sc1ccc(OCCCN2CCN(Cc3ccc(Cl)cc3)CC2)cc1 [Compound 27] | 20% | 89% | 22% | 7% | 22% | 13% | 8% | 61% | 47% | –
1.15 µM | 58.9 µM | 40% | 0.46 µg/mL (≈ 1.06 µM) | 83% | O=C(O)Cc1ccccc1Sc1cccc(OCc2ccc3cc(Cl)ccc3n2)c1 [Compound 31, 2-(3-(6-Chloroquinoline-2-ylmethoxy)phenylsulfanyl)phenylacetic Acid] | 4% | 100% | – | 16% | 11% | 13% | 24% | 75% | 39% | –
0.1 µM | 13.5 µM | – | – | 99% | O=C(O)c1ccccc1Sc1cccc(OCc2ccc3cc(Cl)ccc3n2)c1 [Compound 23, Tromethammonium salt of 2-(3-(6-Chloroquinoline-2-ylmethoxy)phenyl-sulfanyl)benzoic Acid] | 9% | 96% | – | – | – | – | – | – | – | CE: inhibition of carrageenan-induced edema, % of inh. (Wistar-Han rats; dose 100 mg/kg): 50%; Experimental pleuritis, A: volume of exudate in pleural cavity, % of inh. (rats; [8]): 17%; Experimental pleuritis, B: number of cells, % of inh. (rats; [8]): 31%; Experimental pleuritis, C: cellularity in a volume unit, % of inh. (rats; [8]): 17%; Inh. of LTB4 biosynth., IC50 [2]: 0.96 µg/mL; Ear edema, D: edema of ear lobe, % of inh. (male mice; [9]): 1 (s) %; Ear edema, E: hyperemia of ear lobe, % of inh. (male mice; [9]): 8%; Inh. of LTB4 rec. binding, % (LTB4 receptor; at 20 μM): 33%
– | 7.9 µM | 69% | 0.6 µg/mL (≈ 1.17 µM) | 10% | O=C(O)Cc1ccccc1Sc1cccc(OCCCN2CCN(Cc3ccc(Cl)cc3)CC2)c1 [Compound 28, Dihydrogenmaleate of 2-(3-(3-(1-(4-Chlorobenzyl)piperazin-4-yl)-propoxy)phenylsulfanyl)phenylacetic Acid] | 3% | 100% | – | 16% | 19% | 18% | 10% | 21% | 14% | –
